Data set [1] relates to A2780 (ovary) cells. The data set can be described thus: Inhibition of the proliferation/vitality of tumour cells (Alamar Blue test). Type of data set: cell-based. To be noted: Homo sapiens, 96 h, 4 days cultivation with test substance in serum-containing medium, Alamar Blue readout. The protocol: In the present experiment description, the inhibition of tumour cell proliferation/tumour cell vitality by active ingredients is described. The cells are sown in a suitable cell density in microtitre plates (96-well format) and the test substances are added in the form of a concentration series. After four further days of cultivation in serum-containing medium, the tumour cell proliferation/tumour cell vitality can be determined by means of an Alamar Blue test system.
The cells are cultivated in medium. At intervals of several days, the cells are detached from the culture dishes with the aid of trypsin solution and sown in suitable dilution in fresh medium. The cells are cultivated at 37° Celsius and 10% CO2. […]
In each case, 20 μl of Alamar Blue reagent are added per well, and the microtitre plates are incubated, for example, for a further seven hours in a CO2 incubator (at 37° C. and 10% CO2). The plates are measured in a reader with a fluorescence filter at a wavelength of 540 nm. […]
The absorbance value of the medium control (no cells and test substances used) is subtracted from all other absorbance values. The controls (cells without test substance) are set equal to 100 percent, and all other absorbance values are set in relation thereto (for example in % of control):
IC50 values (50% inhibition) are determined with the aid of statistics programs, such as, for example, RS1.
For orientation: The colour change of resazurin is a common sign of viable cells or microbes.

In patent US20100292262A1, “4 (PYRROLO[2,3-C]PYRIDINE-3-YL)PYRIMIDIN-2-AMINE DERIVATIVES” (Merck Patent Gesellschaft Mit Beschrankter Haftung, priority 2008, published 2010) one finds IC50 and melting point data, which are given here for three compounds.

With `Nc1nccc(-c2c[nH]c3cnccc23)n1` [Compound A4, 4-(1H-pyrrolo[2,3-c]pyridin-3-yl)pyrimidin-2-ylamine], in data set [1], the IC50 (commonly the concentration needed to halve the response being measured) lay within 10 to 1000 nM.

With `CCCCc1cc(-c2c[nH]c3cnccc23)nc(N)n1` [Compound A1, 4-butyl-6-(1H-pyrrolo[2,3-c]pyridin-3-yl)pyrimidin-2-ylamine], the melting point (in general, the temperature, or range, at which the solid turns liquid) is 184 to 187 °C (dec.).

In data set [1], `c1ccc(Nc2nccc(-c3c[nH]c4cnccc34)n2)cc1` [Compound A3, phenyl-[4-(1H-pyrrolo[2,3-c]pyridin-3-yl)pyrimidin-2-yl]-amine] registered an IC50 of 10 to 1000 nM.
